In patent publication US20010038824A1, “Intranasal cyclic peptide formulations” (priority 2000, published 2001):
Numbered stars: 1 amine (or outer) side, 2 acyl side, 3 side chain; on linkers, the order of the positions; unused ones are H or OH. Bridge positions count the residues as written; N and C are the ends. Square brackets hold non-standard residues; d marks the D form. Peptide text beside a SMILES is read from it. ξ: configuration not given here. X9 = O=C(C[C@@H](CCc1ccc(-c2ccc(OCCCc3ccccc3)cc2)cc1)N[*:2])[*:1]; X5 = CC(C)CCCOc1ccc(-c2ccc(CC[C@H](CC(=O)[*:1])N[*:2])cc2)cc1; X11 = CCCCCOc1ccc(-c2ccc(CC[C@H](CC(=O)[*:1])N[*:2])cc2)cc1; X6 = NCCC[C@H](N)C(=O)N(CCCN)CCCC(N[*:1])C(=O)[*:2]; X7 = CCCCCCCCCCCCC(C)[C@H](CC(=O)[*:1])O[*:2]; X4 = CCCCCCCCCCCCC[C@H](CC(=O)[*:1])O[*:2]; X2 = NC(=O)CC(O)C(N[*:1])C(=O)[*:2]; ξDopa = NC(Cc1ccc(O)c(O)c1)C(=O)O; X1 = O=C(C1C(O)CCN1[*:1])[*:2]; ξY = NC(Cc1ccc(O)cc1)C(=O)O; ξHyp = O=C(O)C1CC(O)CN1; ξOrn = NCCCC(N)C(=O)O; ξT = CC(O)C(N)C(=O)O; ξV = CC(C)C(N)C(=O)O; ξA = CC(N)C(=O)O

Experiments:
mouse hepatocytes = assay: In vitro hepatotoxicity test; assay type: cell-based; details: mouse hepatocyte monolayers, 1 day exposure, morphological evaluation
Source text: The mouse hepatocytes were isolated by a collagenase digestion and cultured in microtest plates. The hepatocyte monolayers were exposed to the test Aerothricins in the culture system for 1 day. After the culture period, the hepatocytes were observed under a microscope and evaluated morphologically. The degree of the morphological alteration (degeneration) of the hepatocytes by the test Aerothricins were compared with WF11243 and LY303366.

[1] = system: Aspegillus fumigatus CF1003; assay: In vitro antifungal activity, broth micro-dilution; assay type: cell-based; details: YNB medium with 0.2% agarose, 1-2 days at 35° C.
Description: (§1) The in vitro antifungal activities of the representative Aerothricins of the present study were evaluated by determining the 50% inhibitory concentration (IC50), which was calculated as the lowest concentration of an antifungal to inhibit the growth of fungus to […] turbidity compared with the drug-free control growth spectrophotometrically.
(§2) The IC50 values were determined by the broth micro-dilution procedure based on NCCLS Approved Standard with the following minor modifications (National Committee for Clinical Laboratory Standards. (1997) Reference method for broth dilution antifungal susceptibility testing for yeasts. Approved standard. Document M27-A). Yeast Nitrogen Base (YNB; Difco Lab.) supplemented with 1% glucose and 0.25% K2HPO4 was used as testing medium for yeast, the same medium solidified with 0.2% low melting point agarose (BRL) was used for filamentous fungi. Inoculum size was 1-3×10^4 cells/ml, and incubation was performed for 1-2 days at 35° C.

Candida albicans CY1002 = assay: In vitro antifungal activity, broth micro-dilution; assay type: cell-based; details: YNB medium, 1-2 days at 35° C.
Description: as §1, §2

Fusarium solani CF1088 = assay: In vitro antifungal activity, broth micro-dilution; assay type: cell-based; details: YNB medium with 0.2% agarose, 1-2 days at 35° C.
Description: as §1, §2

Candida albicans = assay: Murine systemic candidiasis; assay type: in vivo, mice; details: i.v., b.i.d×1 day followed by q.d.×2 days; survival on day 14
Description: Mice of a conventional immunocompetent mouse strain, Crj: CD-1 (ICR) were used for experimental infection models of systemic candidiasis. 4 weeks old Crj: CD-1 (ICR) mice were used for systemic candidiasis by injecting Candida albicans 5×10^6 conidia/mouse via the tail vein. Treatments were given twice (0, 4 h after infection) on the first day and once daily on following 2 days for systemic candidiasis (b.i.d×1 day followed by q.d.×2 days), intravenously (i.v.). 50% of effective dose (ED50) values was calculated from the survival number at each dose on day 14.

[2] = Toxicity on administration to mice for 4 weeks; assay type: in vivo; details: 5 mg/kg and 30 mg/kg to mice for 4 weeks

Row | SMILES | Solubility (Solubility) | Cytotoxicity to hepatocyte (mouse hepatocytes) | In vitro Antifungal activity, IC50, Aspegillus fumigatus CF1003 [1] | In vitro Antifungal activity, IC50, Candida albicans CY1002 (Candida albicans CY1002) | In vitro Antifungal activity, IC50, Fusarium solani CF1088 (Fusarium solani CF1088) | In vivo antifungal activity against systemic candidiasis in mice, ED50 on day 14 (Candida albicans) | acute toxicity [2]
1 | CCCCCCCCCCCCC[C@@H]1CC(=O)NC(C(C)O)C(=O)NC(C)C(=O)NC(Cc2ccc(O)c(O)c2)C(=O)NC(C(C)C)C(=O)N2CC(O)CC2C(=O)NC(C(C)O)C(=O)NC(C(C)O)C(=O)N2CCC(O)C2C(=O)NC(C(O)CC(N)=O)C(=O)NCC(=O)NC(C(C)O)C(=O)NC(CCCN)C(=O)O1 (stereo partly drawn) [Aerothricin 2] ([ξT][ξA][ξDopa][ξV][ξHyp][ξT][ξT][X1][X2]G[ξT][ξOrn]; linker N-C via X4) | Soluble: water, methanol, dimethylsulfoxide | – | – | – | – | – | –
2 | CCCCCCCCCCCCC[C@@H]1CC(=O)NC(C(C)O)C(=O)NC(C)C(=O)NC(Cc2ccc(O)cc2)C(=O)NC(C(C)C)C(=O)N2CC(O)CC2C(=O)NC(C(C)O)C(=O)NC(C(C)O)C(=O)N2CCC(O)C2C(=O)NC(C(O)CC(N)=O)C(=O)NCC(=O)NC(C(C)O)C(=O)NC(CCCN(CCCN)C(=O)[C@@H](N)CCCN)C(=O)O1 (stereo partly drawn) [Aerothricin 132] ([ξT][ξA][ξY][ξV][ξHyp][ξT][ξT][X1][X2]G[ξT][X6]; linker N-C via X4) | – | >100 µg/mL | 0.10 µg/mL | 0.30 µg/mL | 0.19 µg/mL | – | –
3 | CCCCCCCCCCOc1ccc(CC[C@@H]2CC(=O)NC(C(C)O)C(=O)NC(C)C(=O)NC(Cc3ccc(O)cc3)C(=O)NC(C(C)C)C(=O)N3CC(O)CC3C(=O)NC(C(C)O)C(=O)NC(C(C)O)C(=O)N3CCC(O)C3C(=O)NC(C(O)CC(N)=O)C(=O)NCC(=O)NC(C(C)O)C(=O)NC(CCCN)C(=O)N2)cc1 (stereo partly drawn) [Aerothricin 36] | – | – | 0.05 µg/mL | 0.08 µg/mL | 1.00 µg/mL | 0.6 mg/kg | –
4 | CCCCCCCCCCCCC(C)[C@@H]1CC(=O)NC(C(C)O)C(=O)NC(C)C(=O)NC(Cc2ccc(O)cc2)C(=O)NC(C(C)C)C(=O)N2CC(O)CC2C(=O)NC(C(C)O)C(=O)NC(C(C)O)C(=O)N2CCC(O)C2C(=O)NC(C(O)CC(N)=O)C(=O)NCC(=O)NC(C(C)O)C(=O)NC(CCCN)C(=O)O1 (stereo partly drawn) [Aerothricin 1] ([ξT][ξA][ξY][ξV][ξHyp][ξT][ξT][X1][X2]G[ξT][ξOrn]; linker N-C via X7) | Soluble: water, methanol, dimethylsulfoxide | – | 0.06 µg/mL | 0.03 µg/mL | 0.21 µg/mL | – | no acute toxicity
5 | CC1NC(=O)C(C(C)O)NC(=O)C[C@@H](CCc2ccc(-c3ccc(OCCCc4ccccc4)cc3)cc2)NC(=O)C(CCCN)NC(=O)C(C(C)O)NC(=O)CNC(=O)C(C(O)CC(N)=O)NC(=O)C2C(O)CCN2C(=O)C(C(C)O)NC(=O)C(C(C)O)NC(=O)C2CC(O)CN2C(=O)C(C(C)C)NC(=O)C(Cc2ccc(O)cc2)NC1=O (stereo partly drawn) [Aerothricin 46] ([ξT][ξA][ξY][ξV][ξHyp][ξT][ξT][X1][X2]G[ξT][ξOrn]; linker N-C via X9) | – | – | 0.08 µg/mL | 0.09 µg/mL | 1.80 µg/mL | 0.4 mg/kg | –
6 | CCCCCOc1ccc(-c2ccc(CC[C@@H]3CC(=O)NC(C(C)O)C(=O)NC(C)C(=O)NC(Cc4ccc(O)cc4)C(=O)NC(C(C)C)C(=O)N4CC(O)CC4C(=O)NC(C(C)O)C(=O)NC(C(C)O)C(=O)N4CCC(O)C4C(=O)NC(C(O)CC(N)=O)C(=O)NCC(=O)NC(C(C)O)C(=O)NC(CCCN)C(=O)N3)cc2)cc1 (stereo partly drawn) [Aerothricin 41] ([ξT][ξA][ξY][ξV][ξHyp][ξT][ξT][X1][X2]G[ξT][ξOrn]; linker N-C via X11) | – | – | 0.03 µg/mL | 0.08 µg/mL | 2.40 µg/mL | 0.3 mg/kg | –
7 | CCCCCCCCCCCCC[C@@H]1CC(=O)NC(C(C)O)C(=O)NC(C)C(=O)NC(Cc2ccc(OC)cc2)C(=O)NC(C(C)C)C(=O)N2CC(O)CC2C(=O)NC(C(C)O)C(=O)NC(C(C)O)C(=O)N2CCC(O)C2C(=O)NC(C(O)CC(N)=O)C(=O)NCC(=O)NC(C(C)O)C(=O)NC(CCCN)C(=O)O1 (stereo partly drawn) [Aerothricin 5] ([ξT][ξA][ξY](Me)[ξV][ξHyp][ξT][ξT][X1][X2]G[ξT][ξOrn]; linker N-C via X4) | – | – | 0.07 µg/mL | 0.03 µg/mL | 0.19 µg/mL | 0.3 mg/kg | –
8 | CC(C)CCCOc1ccc(-c2ccc(CC[C@@H]3CC(=O)NC(C(C)O)C(=O)NC(C)C(=O)NC(Cc4ccc(O)cc4)C(=O)NC(C(C)C)C(=O)N4CC(O)CC4C(=O)NC(C(C)O)C(=O)NC(C(C)O)C(=O)N4CCC(O)C4C(=O)NC(C(O)CC(N)=O)C(=O)NCC(=O)NC(C(C)O)C(=O)NC(CCCN)C(=O)N3)cc2)cc1 (stereo partly drawn) [Aerothricin 45] ([ξT][ξA][ξY][ξV][ξHyp][ξT][ξT][X1][X2]G[ξT][ξOrn]; linker N-C via X5) | – | >100 µg/mL | – | – | – | – | –
